Reference: patent US20070219141A1, “Plant Materials Extraction Method” (priority 2003, published 2007)

Key:
Assay type in all cases: cell-based
Pseudomonas aeruginosa = experiment: Disk diffusion assay on agar plates; set-up: key: “+” active; “—” not active
Excerpt: (§1) Microorganisms: Laboratory strains of bacteria and fungus were obtained from Dr. Neil Towers' and Dr. Jovel's lab, The University of British Columbia. Seven species of bacteria and one species of fungus will be used in the screening process. The bacteria strains consisted of Staphylococcus aureus, methicillin resistant Staphylococcus aureus, Bacillus subtilis and Enterococcus faecalis, Escherichia coli, Pseudomonas aeruginosa, and Salmonella typhimurium. The fungal species was Candida albicans.
(§2) Methods: Disk diffusion assay on agar plates inoculated with the organisms being studies. The plates were divided into quadrants or sixths using a black marking pen. In quadrant 1 and 2, negative and positive controls were run (no treatment and gentamicin). Test compounds were run on the remaining available portions.

Salmonella typhimurium = experiment: Disk diffusion assay on agar plates; set-up: key: “+” active; “—” not active
Excerpt: as §1, §2

[1] = tested on: all the bacteria and fungus used in above biological screening; experiment: Disk diffusion assay, whole panel; conditions: seven bacteria and C. albicans
Excerpt: as §1, §2

Candida albicans = experiment: Disk diffusion assay on agar plates; set-up: key: “+” active; “—” not active
Excerpt: as §1, §2

Enterococcus faecalis = experiment: Disk diffusion assay on agar plates; set-up: key: “+” active; “—” not active
Excerpt: as §1, §2

Compound	Anti-microbial activity P. a (Pseudomonas aeruginosa)	Anti-microbial activity S. t. (Salmonella typhimurium)	anti-microbial activity over the panel, in words [1]	Anti-microbial activity C. a (Candida albicans)	Anti-microbial activity E. f. (Enterococcus faecalis)
CC1(C)C=CC=C(C(=O)O)C=C1 [Thujic acid standard, thujic acid]	—	+	showed activities against some bacteria and fungus		
CC(C)c1cccc(=O)c(O)c1 [Hinokitiol standard, 2,4,6-Cycloheptatrien-1-one,2-hydroxy-4-(1-methylethyl)]	+		demonstrated activities against all the bacteria and fungus		
Gentamicin			active against all the tested bacteria but not against C. albicans	—	+
